# Assay results reported in US9409891B2, “Solid forms of an antiviral compound” (Gilead Sciences, Inc., priority 2012, dated 2016).
# Experiments:
# [1] = Desolvation screening (vacuum oven); type: physicochemical; settings: heated to about 110~120° C. in a vacuum oven
# Protocol: Another method of generating anhydrous forms is desolvation. In this study, the solvates and hydrates of Compound I were heated to about 110˜120° C. in a vacuum oven to desolvate.
# [2] = First stable form screening (amorphous Compound I in 19 solvents/mixtures at ambient conditions); type: physicochemical; settings: for 2-Week solids / 24 h solids / solubility: amorphous start, ambient; for solubility: thermodynamic from solid
# Protocol: The first stable form screening was conducted using 19 solvents/mixtures at ambient conditions. The starting material was amorphous. Anti-solvents, either water or heptane, were used to precipitate the solids.
# Form I is a hydrate form obtained from ACN/water 50:50 mixture. Form II is an anhydrous form obtained from ACN. […] Solids in water and heptane were amorphous. Other samples remained as solutions.
# It appears to be a solvated form. […] Solids in water and heptane remained amorphous. Other samples remained as solution.
# [3] = Follow-up stable form screening (Form II stirred in solvents at about 22° C.); type: physicochemical; settings: about 22° C., Form II start
# Protocol: In the follow-up stable form screening experiments, the starting materials were Form II. The solids were stirring in the solvents list below at about 22° C. in 2 ml vials.
# [4] = Stable form competition study in ACN; type: physicochemical; settings: ACN mother liquor
# Protocol: To further verify the stability of Form II, competitive crystallization was conducted by adding Forms I through V into a high concentration solution of amorphous Compound I in ACN. […] The mother liquor obtained, which was saturated in terms of Form II, was used in another test in which other forms (Forms I, III, IV and V) were added.
# [5] = dried at 70° C.
# [6] = 2 Me-THF, init. conc. 77.4 mg/mL
# [7] = Acetone, init. conc. 79.6 mg/mL
# [8] = Heptane, init. conc. 12.7 mg/mL
# [9] = Toluene, init. conc. 16.2 mg/mL
molecule,measurement,setting,value
"CC1=CC[C@H](C(=O)N(c2cc(C#CC(C)(C)C)sc2C(=O)O)C2CCC(O)(CO[C@H]3CCOC3)CC2)CC1.O (relative stereo) [Form VIII, 5-(3,3-dimethylbutyn-1-yl)-3-[(cis-4-hydroxy-4-{[(3S)-tetrahydrofuran-3-yloxy]methyl}cyclohexyl){[(1R)-4-methylcyclohex-3-en-1-yl]carbonyl}amino]thiophene-2-carboxylic acid monohydrate]",Final Form after desolvation,[1],VIII
"5-(3,3-dimethylbutyn-1-yl)-3-[(cis-4-hydroxy-4-{[(3S)-tetrahydrofuran-3-yloxy]methyl}cyclohexyl){[(1R)-4-methylcyclohex-3-en-1-yl]carbonyl}amino]thiophene-2-carboxylic acid solvate [Form V]",Final Form after desolvation,[1],Amorphous
"CC1=CC[C@H](C(=O)N(c2cc(C#CC(C)(C)C)sc2C(=O)O)[C@H]2CC[C@](O)(CO[C@H]3CCOC3)CC2)CC1 [Compound I, 5-(3,3-dimethylbutyn-1-yl)-3-[(cis-4-hydroxy-4-{[(3S)-tetrahydrofuran-3-yloxy]methyl}cyclohexyl){[(1R)-4-methylcyclohex-3-en-1-yl]carbonyl}amino]thiophene-2-carboxylic acid]",2-Week solids,[2]; [6],solution
same,24 h solids,[2]; [6],solution
same,2-Week solids,[2]; [7],solution
same,24 h solids,[2]; [7],solution
same,2-Week solids,"[2]; EtOAc, init. conc. 49.4 mg/mL",solution
same,24 h solids,"[2]; EtOAc, init. conc. 49.4 mg/mL",solution
same,2-Week solids,"[2]; EtOH, init. conc. 76 mg/mL",solution
same,24 h solids,"[2]; EtOH, init. conc. 76 mg/mL",solution
same,2-Week solids,[2]; [8],amorphous
same,24 h solids,[2]; [8],amorphous
same,24 h solids,"[2]; IPA/water, init. conc. 47.7 mg/mL",solution
same,2-Week solids,"[2]; IPA, init. conc. 95.4 mg/mL",solution
same,24 h solids,"[2]; IPA, init. conc. 95.4 mg/mL",solution
same,2-Week solids,"[2]; IPAc, init. conc. 39.6 mg/mL",solution
same,24 h solids,"[2]; IPAc, init. conc. 39.6 mg/mL",solution
same,2-Week solids,"[2]; MEK, init. conc. 65.6 mg/mL",solution
same,24 h solids,"[2]; MEK, init. conc. 65.6 mg/mL",solution
same,2-Week solids,"[2]; MIBK, init. conc. 60.2 mg/mL",solution
same,24 h solids,"[2]; MIBK, init. conc. 60.2 mg/mL",solution
same,24 h solids,"[2]; MTBE, init. conc. >45 mg/mL",solution
same,2-Week solids,"[2]; MeCl2, init. conc. 36 mg/mL",solution
same,24 h solids,"[2]; MeCl2, init. conc. 36 mg/mL",solution
same,2-Week solids,"[2]; MeOH, init. conc. 87.4 mg/mL",solution
same,24 h solids,"[2]; MeOH, init. conc. 87.4 mg/mL",solution
same,2-Week solids,"[2]; THF, init. conc. 53.4 mg/mL",solution
same,24 h solids,"[2]; THF, init. conc. 53.4 mg/mL",solution
same,2-Week solids,[2]; [9],solution
same,24 h solids,[2]; [9],solution
same,2-Week solids,"[2]; Water, init. conc. 11 mg/mL",amorphous
same,24 h solids,"[2]; Water, init. conc. 11 mg/mL",amorphous
same,solubility,"[2]; aqueous with cosolvent or surfactant or cyclodextrin, ACN/water (50:50), solids I",0.23 mg/mL
same,solubility,"[2]; aqueous with cosolvent or surfactant or cyclodextrin, EtOH/water, solids III then IV",14.5 mg/mL
same,solubility,"[2]; aqueous with cosolvent or surfactant or cyclodextrin, IPA/water, 2-week solids V",1.78 mg/mL
same,solubility,"[2]; organic solvent or mixture, 2 Me-THF, remained solution",> 77.4 mg/mL
same,solubility,"[2]; organic solvent or mixture, ACN, solids II",13 mg/mL
same,solubility,"[2]; organic solvent or mixture, Acetone, remained solution",> 79.6 mg/mL
same,solubility,"[2]; organic solvent or mixture, EtOAc, remained solution",> 49.4 mg/mL
same,solubility,"[2]; organic solvent or mixture, EtOH, remained solution",> 76 mg/mL
same,solubility,"[2]; organic solvent or mixture, IPA, remained solution",> 95.4 mg/mL
same,solubility,"[2]; organic solvent or mixture, IPAc, remained solution",> 39.6 mg/mL
same,solubility,"[2]; organic solvent or mixture, MEK, remained solution",> 65.6 mg/mL
same,solubility,"[2]; organic solvent or mixture, MIBK, remained solution",> 60.2 mg/mL
same,solubility,"[2]; organic solvent or mixture, MTBE, 2-week solids V",316 mg/mL
same,solubility,"[2]; organic solvent or mixture, MeCl2, remained solution",> 36 mg/mL
same,solubility,"[2]; organic solvent or mixture, MeOH, remained solution",> 87.4 mg/mL
same,solubility,"[2]; organic solvent or mixture, THF, remained solution",> 53.4 mg/mL
same,solubility,"[2]; organic solvent or mixture, Toluene, remained solution",> 16.2 mg/mL
"CC(C)O.CC1=CC[C@H](C(=O)N(c2cc(C#CC(C)(C)C)sc2C(=O)O)C2CCC(O)(CO[C@H]3CCOC3)CC2)CC1 (relative stereo) [Form VII, 5-(3,3-dimethylbutyn-1-yl)-3-[(cis-4-hydroxy-4-{[(3S)-tetrahydrofuran-3-yloxy]methyl}cyclohexyl){[(1R)-4-methylcyclohex-3-en-1-yl]carbonyl}amino]thiophene-2-carboxylic acid isopropyl alcohol solvate]",Final Form after desolvation,[1],Amorphous
same,solubility,"[3]; IPA, value for Form VII",266 mg/mL
"CC1=CC[C@H](C(=O)N(c2cc(C#CC(C)(C)C)sc2C(=O)O)C2CCC(O)(CO[C@H]3CCOC3)CC2)CC1.CCO (relative stereo) [Form IX, 5-(3,3-dimethylbutyn-1-yl)-3-[(cis-4-hydroxy-4-{[(3S)-tetrahydrofuran-3-yloxy]methyl}cyclohexyl){[(1R)-4-methylcyclohex-3-en-1-yl]carbonyl}amino]thiophene-2-carboxylic acid ethanol solvate]",solubility,"[3]; EtOH, value for Form IX",283 mg/mL
"CC1=CC[C@H](C(=O)N(c2cc(C#CC(C)(C)C)sc2C(=O)O)[C@H]2CC[C@](O)(CO[C@H]3CCOC3)CC2)CC1.CCC(C)=O (relative stereo) [Form X, 5-(3,3-dimethylbutyn-1-yl)-3-[(cis-4-hydroxy-4-{[(3S)-tetrahydrofuran-3-yloxy]methyl}cyclohexyl){[(1R)-4-methylcyclohex-3-en-1-yl]carbonyl}amino]thiophene-2-carboxylic acid methyl ethyl ketone]",solubility,"[3]; MEK, value for Form X",127 mg/mL
"CC1=CC[C@H](C(=O)N(c2cc(C#CC(C)(C)C)sc2C(=O)O)[C@H]2CC[C@](O)(CO[C@H]3CCOC3)CC2)CC1.O (relative stereo) [Form I, 5-(3,3-dimethylbutyn-1-yl)-3-[(cis-4-hydroxy-4-{[(3S)-tetrahydrofuran-3-yloxy]methyl}cyclohexyl){[(1R)-4-methylcyclohex-3-en-1-yl]carbonyl}amino]thiophene-2-carboxylic acid hydrate]",Final Form after desolvation,[1],Amorphous
same,Behaviour of solids added to mother liquor saturated in Form II,[4],dissolved quickly
same,Solid state after drying (XRPD),[5],partially became amorphous
same,solubility,"[3]; Water, value for Form I",0.25 mg/mL
"5-(3,3-dimethylbutyn-1-yl)-3-[(cis-4-hydroxy-4-{[(3S)-tetrahydrofuran-3-yloxy]methyl}cyclohexyl){[(1R)-4-methylcyclohex-3-en-1-yl]carbonyl}amino]thiophene-2-carboxylic acid hydrate and/or solvate [Form III]",Form conversion in slurry,"[2]; EtOH/water slurry, after 2 weeks of stirring",converted to Form IV
same,Form conversion upon drying,"[2]; solids from EtOH/water, dried",converted to Form IV
